Data on 8 molecules can be found in patent publication US9481676B2, “Azepino[4,5-B]indoles and methods of use” (Medivation Technologies, Inc., priority 2008, dated 2016).

T1 sequence (P28223 whole entry): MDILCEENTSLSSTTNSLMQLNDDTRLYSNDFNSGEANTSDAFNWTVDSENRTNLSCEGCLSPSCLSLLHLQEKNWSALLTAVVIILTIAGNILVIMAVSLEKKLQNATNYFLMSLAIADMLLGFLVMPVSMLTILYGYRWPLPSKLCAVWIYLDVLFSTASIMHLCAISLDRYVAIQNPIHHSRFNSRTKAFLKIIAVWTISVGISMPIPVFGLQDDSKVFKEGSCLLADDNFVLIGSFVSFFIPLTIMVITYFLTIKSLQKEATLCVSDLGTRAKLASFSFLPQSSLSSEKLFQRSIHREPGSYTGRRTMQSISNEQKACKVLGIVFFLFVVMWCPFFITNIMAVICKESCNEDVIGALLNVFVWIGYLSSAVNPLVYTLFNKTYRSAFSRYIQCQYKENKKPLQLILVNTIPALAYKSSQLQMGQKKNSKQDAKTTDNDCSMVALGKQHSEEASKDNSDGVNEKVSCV

The test concerns the target T1, human recombinant serotonin (5-Hydroxytryptamine) 5-HT2A receptor (Homo sapiens, UniProt P28223).
T1 construct: expressed in transfected cells; host or cells: CHO-K1 cells
Briefly: Serotonin 5-HT2A radioligand binding ([3H]Ketanserin). The conditions noted are these: compound at 1 μM; read-out: Serotonin (1 μM) 5-HT2A, percent inhibition of specific binding. Put shortly:
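Percent inhibition of specific [3H]ketanserin (0.5 nM) binding, filtration read-out, with compounds at ≤1 μM (1% DMSO vehicle). Receptor source: recombinant human 5-HT2A in CHO-K1 cells, 50 mM Tris-HCl pH 7.4, 60 min, 25 °C; 1 μM mianserin gives nonspecific binding.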
What is called inhibition is the change of the read-out against control, counted positive when it falls. Regarding `COc1ccc(C(O)Cn2c3c(c4cc(Cl)ccc42)CCN(C)CC3)c(F)c1` (centres unmarked) [Compound No. 49, 2-(9-chloro-2,3,4,5-tetrahydro-3-methylazepino[4,5-b]indol-6(1H)-yl)-1-(2-fluoro-4-methoxyphenyl) ethanol], the inhibition at 1 µM was 97%.
For `COc1ccc(C(O)Cn2c3c(c4cc(Cl)ccc42)CCN(C)CC3)cc1` (centres unmarked) [Compound No. 47, 2-(9-chloro-2,3,4,5-tetrahydro-3-methylazepino[4,5-b]indol-6(1H)-yl)-1-(4-methoxyphenyl)ethanol] the value was 99%; for `Cc1ccc2c(c1)c1c(n2CC(O)c2ccncc2)CCN(C)CC1` (centres unmarked) [Compound No. 43, 2-(2,3,4,5-tetrahydro-3,9-dimethylazepino[4,5-b]indol-6(1H)-yl)-1-(pyridin-4-yl)ethanol], 93%; for `CN1CCc2c(n(CC(=O)N3CCOCC3)c3ccc(Cl)cc23)CC1` [Compound No. 60, 2-(9-chloro-2,3,4,5-tetrahydro-3-methylazepino[4,5-b]indol-6(1H)-yl)-1-morpholinoethanone], -7%.
In the case of `CN1CCc2c(n(CCc3ccncc3)c3ccc(Cl)cc23)CC1` [Compound No. 5, 9-chloro-1,2,3,4,5,6-hexahydro-3-methyl-6-(2-(pyridin-4-yl)ethyl)azepino[4,5-b]indole], the inhibition at 1 µM stood at 96%.
Turning to `Cc1ccc2c(c1)c1c(n2CCc2ccccn2)CCN(C)CC1` [Compound No. 9, 1,2,3,4,5,6-hexahydro-3,9-dimethyl-6-(2-(pyridin-2-yl)ethyl)azepino[4,5-b]indole], the inhibition at 1 µM worked out at 96%.
Take `CN1CCc2c(n(CCc3ccc(Cl)cc3)c3ccc(Cl)cc23)CC1` [Compound No. 30, 6-(4-chlorophenethyl)-9-chloro-1,2,3,4,5,6-hexahydro-3-methylazepino[4,5-b]indole]: the inhibition at 1 µM worked out at 100%.
On to `CN1CCc2c(n(CC(=O)Nc3ccc(F)cc3)c3ccc(Cl)cc23)CC1` [Compound No. 37, 2-(9-chloro-2,3,4,5-tetrahydro-3-methylazepino[4,5-b]indol-6(1H)-yl)-N-(4-fluorophenyl) acetamide], for which the inhibition at 1 µM was 91%.
